Assay results: paper PMC6259751, “Investigating Spectrum of Biological Activity of 4- and 5-Chloro-2-hydroxy-N-[2-(arylamino)-1-alkyl-2-oxoethyl]benzamides” (Molecules, 2011)
Values after ≈ are worked out from the molar mass of the structure shown. Values joined by “and” are separate entries in the source; they are usually repeats but may differ in a detail not shown here. Equal values may be shown once. Read-outs that look alike come from different tables or passages of the source.

Columns and labels:
[1] = Lipophilicity determination by RP-HPLC (capacity factor k / log k); format: physicochemical; details: C18 column, MeOH 70% / H2O 30%, isocratic
Procedure: Hydrophobicities (log P/Clog P) of compounds 8 and 9 were calculated using two commercially available programs (ChemOffice Ultra 10.0 and ACD/LogP) and measured by means of RP-HPLC determination of capacity factors k with subsequent calculation of log k. The procedure was performed under isocratic conditions with methanol as an organic modifier in the mobile phase using an end-capped non-polar C18 stationary RP column. The results are shown in Table 1 and illustrated in Figure 1.
A Waters Alliance 2695 XE HPLC separation module and a Waters Photodiode Array Detector 2996 (Waters Corp., Milford, MA, USA) were used. A Symmetry® C18 5 μm, 4.6 × 250 mm, Part No. WAT054275 (Waters Corp., Milford, MA, USA) chromatographic column was used. The HPLC separation process was monitored by Empower™ 2 Chromatography Data Software, Waters 2009 (Waters Corp., Milford, MA, USA). A mixture of MeOH p.a. (70%) and H2O-HPLC – Mili-Q Grade (30%) was used as a mobile phase. The total flow of the column was 1.0 mL/min, injection volume, 30 μL, column temperature, 30 °C and sample temperature, 10 °C. The detection wavelength of 210 nm was chosen. The KI methanolic solution was used for the dead time (tD) determination. Retention times (tR) were measured in minutes. The capacity factors k were calculated using the Empower™ 2 Chromatography Data Software according to formula k = (tR - tD)/tD, where tR is the retention time of the solute, whereas tD denotes the dead time obtained using an unretained analyte. Log k, calculated from the capacity factor k, is used as the lipophilicity index converted to log P scale.

[2] = system: Mycobacterium tuberculosis MTB CNCTC My 331/88; assay: In vitro antimycobacterial evaluation; format: cell-based; details: IC90 value
[3] = system: Mycobacterium avium MA CNCTC My 330/88; assay: In vitro antimycobacterial evaluation; format: cell-based; details: IC90 value
[4] = system: Mycobacterium kansasii MK CNCTC My 235/80; assay: In vitro antimycobacterial evaluation; format: cell-based; details: IC90 value
[5] = system: Candida tropicalis 156; assay: In vitro antifungal susceptibility testing (broth microdilution); format: cell-based; details: M27-A2 for yeasts, IC80 value
[6] = system: Trichophyton mentagrophytes 445; assay: as above; format: cell-based; details: M38-A for moulds, IC50 value, read-out: MIC TM
[7] = system: photosynthetic electron transport (PET) in spinach chloroplasts; assay: Inhibition of photosynthetic electron transport (PET) in spinach chloroplasts; format: biochemical, Spinacia oleracea L.; details: DCPIP photoreduction
Procedure: Chloroplasts were prepared from spinach (Spinacia oleracea L.) according to Masarovicova and Kralova. The inhibition of photosynthetic electron transport (PET) in spinach chloroplasts was determined spectrophotometrically (Genesys 6, Thermo Scientific, USA), using an artificial electron acceptor 2,6-dichlorophenol-indophenol (DCIPP) according to Kralova et al., and the rate of photosynthetic electron transport was monitored as a photoreduction of DCPIP. The measurements were carried out in phosphate buffer (0.02 mol/L, pH 7.2) containing sucrose (0.4 mol/L), MgCl2 (0.005 mol/L) and NaCl (0.015 mol/L). The chlorophyll content was 30 mg/L in these experiments and the samples were irradiated (~100 W/m^2) from 10 cm distance with a halogen lamp (250 W) using a 4 cm water filter to prevent warming of the samples. The studied compounds were dissolved in DMSO due to their limited water solubility. […] The inhibitory efficiency of the studied compounds was expressed by IC50 values, i.e. by molar concentration of the compounds causing 50% decrease in the oxygen evolution rate relative to the untreated control.

[8] = format: physicochemical; details: for precipitation in the testing medium: antimycobacterial testing medium
Procedure: (§1) The discussed amides were tested against three Mycobacteria strains. […] Activities of some benzamides, especially against M. avium and M. kansasii, considerably exceeded the activity of isoniazid (INH) used as an internal standard. The discussed compounds can be divided according to the activities against individual Mycobacteria strains, and structure-activity relationships within Group 1, Group 2 and Group 4 can be discussed.

[9] = system: Staphylococcus aureus CCM 4516/08; assay: In vitro antibacterial susceptibility testing (broth microdilution); details: read-out: MIC SA
[10] = system: methicilin resistant Staphylococcus aureus H 5996/08; assay: as above; details: MRSA, read-out: MIC MRSA
[11] = system: Staphylococcus epidermidis H 6966/08; assay: as above; details: read-out: MIC SE
[12] = system: Enterococcus sp. J 14365/08; assay: as above; details: read-out: MIC EF
[13] = system: three Mycobacteria strains; assay: Antimycobacterial screening, summary statements (strain not specified); format: cell-based, Mycobacterium sp.; details: Mycobacterium, read-out: antitubercular / antimycobacterial activity (MIC)
Procedure: as §1
The in vitro antimycobacterial activity of all prepared compounds was evaluated against Mycobacterium tuberculosis MTB CNCTC My 331/88 (identical with H37RV and ATCC 27294, dilution of the strain was 10^−3 μmol/L), Mycobacterium avium MA CNCTC My 330/88 (identical with ATCC 25291, dilution of the strain was 10^−5 μmol/L) and Mycobacteriumkansasii MK CNCTC My 235/80 (identical with ATCC 12478, dilution of the strain was 10^−4 μmol/L) in the Laboratory for mycobacterial diagnostics and TB, Institute of Public Health in Ostrava, Czech Republic. All strains were obtained from the Czech National Collection of Type Cultures (CNCTC). Antimycobacterial activities were determined in the Sula semisynthetic medium (Sevac, Prague, Czech Republic). […] Reading was carried out on a stand with a bottom magnifying mirror, macroscopically, with the use of magnifying glass. The growth in plates was evaluated after 14 and 21 days of the incubation. […]

[14] = system: photosynthetic electron transport (PET) in spinach chloroplasts; set-up: method as in earlier work; details: standard ref 41; cited from earlier work

Row | Compound | log k [1] | MIC ([2]; 14h) | MIC ([2]; 21h) | MIC ([3]; 14h) | MIC ([3]; 21h) | MIC ([4]; 14h) | MIC ([4]; 21h) | MIC ([5]; 24h) | MIC ([5]; 48h) | MIC ([6]; 72h) | MIC ([6]; 120h) | IC50 [7] | MIC ([9]; CCM4516, 24 h) | MIC ([9]; CCM4516, 48 h) | MIC ([10]; 24 h) | MIC ([10]; 48 h) | MIC ([11]; H6966/08, 24 h) | MIC ([11]; H6966/08, 48 h) | MIC ([12]; SP.J14365/08, 24 h) | MIC ([12]; SP.J14365/08, 48 h) | further results
1 | C[C@H](NC(=O)c1cc(Cl)ccc1O)C(=O)Nc1cccc(Cl)c1 [8b] | 0.41 and 0.4166 | 250 µM (≈ 88.3 µg/mL) | > 500 µM | 500 µM (≈ 177 µg/mL) | > 500 µM | 500 µM (≈ 177 µg/mL) | > 500 µM | > 125 µM | > 125 µM | 125 µM (≈ 44.2 µg/mL) | 125 µM (≈ 44.2 µg/mL) | 41.7 µM | > 250 µM | > 250 µM | > 250 µM | > 250 µM | > 250 µM | > 250 µM | > 250 µM | > 250 µM | solubility in comparison with the initial esters [8]: lower solubility; precipitation in the testing medium [8]: precipitation in the testing medium
2 | O=C(N[C@H](Cc1ccccc1)C(=O)Nc1ccc(Cl)cc1)c1cc(Cl)ccc1O [8l, N-{(1R)-1-benzyl-2-[(4-chlorophenyl)amino]-2-oxoethyl}-5-chloro-2-hydroxybenzamide] | 0.7329 | 16 µM (≈ 6.87 µg/mL) | 16 µM (≈ 6.87 µg/mL) | 32 µM (≈ 13.7 µg/mL) | 32 µM (≈ 13.7 µg/mL) | 32 µM (≈ 13.7 µg/mL) | 32 µM (≈ 13.7 µg/mL) | 125 µM (≈ 53.7 µg/mL) | > 125 µM | 125 µM (≈ 53.7 µg/mL) | 125 µM (≈ 53.7 µg/mL) | 33.7 µM | > 125 µM | > 125 µM | > 125 µM | > 125 µM | > 125 µM | > 125 µM | > 125 µM | > 125 µM | MIC [13]: 32 µM (≈ 13.7 µg/mL)
3 | O=C(N[C@@H](Cc1ccccc1)C(=O)Nc1ccc(Cl)c(Cl)c1)c1cc(Cl)ccc1O [8q] | 0.9485 | 125 µM (≈ 58 µg/mL) | > 1000 µM | 125 µM (≈ 58 µg/mL) | > 1000 µM | 250 µM (≈ 116 µg/mL) | > 1000 µM | > 125 µM | > 125 µM | > 125 µM | > 125 µM | 74.2 µM | > 500 µM | > 500 µM | > 500 µM | > 500 µM | > 500 µM | > 500 µM | > 500 µM | > 500 µM | solubility in comparison with the initial esters [8]: lower solubility; precipitation in the testing medium [8]: precipitated from testing medium
4 | O=C(N[C@H](Cc1ccccc1)C(=O)Nc1ccc(Cl)c(Cl)c1)c1cc(Cl)ccc1O [8r] | 0.9408 | 125 µM (≈ 58 µg/mL) | > 1000 µM | 125 µM (≈ 58 µg/mL) | > 1000 µM | 250 µM (≈ 116 µg/mL) | > 1000 µM | > 125 µM | > 125 µM | > 125 µM | > 125 µM |  | > 500 µM | > 500 µM | > 500 µM | > 500 µM | > 500 µM | > 500 µM | > 500 µM | > 500 µM | solubility in comparison with the initial esters [8]: lower solubility; precipitation in the testing medium [8]: precipitated from testing medium
5 | C[C@H](NC(=O)c1ccc(Cl)cc1O)C(=O)Nc1ccc(Cl)cc1 [9a] | 0.4934 | 62.5 µM (≈ 22.1 µg/mL) | 62.5 µM (≈ 22.1 µg/mL) | 125 µM (≈ 44.2 µg/mL) | 125 µM (≈ 44.2 µg/mL) | 125 µM (≈ 44.2 µg/mL) | 125 µM (≈ 44.2 µg/mL) | > 250 µM | > 250 µM | > 250 µM | > 250 µM | 61.5 µM | 250 µM (≈ 88.3 µg/mL) | 500 µM (≈ 177 µg/mL) | 500 µM (≈ 177 µg/mL) | 500 µM (≈ 177 µg/mL) | 250 µM (≈ 88.3 µg/mL) | 250 µM (≈ 88.3 µg/mL) | 500 µM (≈ 177 µg/mL) | 500 µM (≈ 177 µg/mL) | 
6 | CC(C)[C@H](NC(=O)c1ccc(Cl)cc1O)C(=O)Nc1ccc(Cl)cc1 [9c] | 0.6839 | 62.5 µM (≈ 23.8 µg/mL) | 62.5 µM (≈ 23.8 µg/mL) | 62.5 µM (≈ 23.8 µg/mL) | 125 µM (≈ 47.7 µg/mL) | 62.5 µM (≈ 23.8 µg/mL) | 62.5 µM (≈ 23.8 µg/mL) | > 125 µM | > 125 µM | > 125 µM | > 125 µM | 23.8 µM | > 500 µM | > 500 µM | > 500 µM | > 500 µM | > 500 µM | > 500 µM | > 500 µM | > 500 µM | 
7 | O=C(N[C@H](Cc1ccccc1)C(=O)Nc1ccc(Cl)cc1)c1ccc(Cl)cc1O [9f, N-{(1R)-1-benzyl-2-[(4-chlorophenyl)amino]-2-oxoethyl}-4-chloro-2-hydroxybenzamide] | 0.7479 | 32 µM (≈ 13.7 µg/mL) | 32 µM (≈ 13.7 µg/mL) | 32 µM (≈ 13.7 µg/mL) | 32 µM (≈ 13.7 µg/mL) | 32 µM (≈ 13.7 µg/mL) | 32 µM (≈ 13.7 µg/mL) | > 125 µM | > 125 µM | > 125 µM | > 125 µM | 23.5 µM | > 500 µM | > 500 µM | > 500 µM | > 500 µM | > 500 µM | > 500 µM | > 500 µM | > 500 µM | MIC [13]: 32 µM (≈ 13.7 µg/mL)
8 | CN(C)C(=O)Nc1ccc(Cl)c(Cl)c1 [DCMU, 3-(3,4-dichlorophenyl)-1,1-dimethylurea] |  |  |  |  |  |  |  |  |  |  |  |  |  |  |  |  |  |  |  |  | IC50 [14]: ~1.9 µM and 1.9 µM
